# Experimental data: ChEMBL document CHEMBL4270599, “Synthesis of a 3'-C-ethynyl-β-d-ribofuranose purine nucleoside library: Discovery of C7-deazapurine analogs as potent antiproliferative nucleosides” (Eur J Med Chem, 2018)
# Legend:
# Format in all cases: functional
# HL-60(TB) = test: Cytotoxicity against human HL-60(TB) cells after 48 hrs by SRB assay; details: HL-60, 48 h
# NCI-H460 = test: Cytotoxicity against human NCI-H460 cells after 48 hrs by SRB assay; details: NCI-H460, 48 h
# SNB-19 = test: Cytotoxicity against human SNB19 cells after 48 hrs by SRB assay; details: SNB-19, 48 h
# U-251 [1] = test: Cytotoxicity against human U251 cells after 48 hrs by SRB assay; details: U-251, 48 h, read-out: LC50 (the source's name)
# MDA-MB-435 = test: Cytotoxicity against human MDA-MB-435 cells after 48 hrs by SRB assay; details: MDA-MB-435, 48 h
# SK-MEL-5 = test: Cytotoxicity against human SK-MEL-5 cells after 48 hrs by SRB assay; details: SK-MEL-5, 48 h
# IGROV-1 = test: Cytotoxicity against human IGROV1 cells after 48 hrs by SRB assay; details: IGROV-1, 48 h
# OVCAR-4 [2] = test: Cytotoxicity against human OVCAR4 cells after 48 hrs by SRB assay; details: OVCAR-4, 48 h
# SK-OV-3 = test: Cytotoxicity against human SKOV3 cells after 48 hrs by SRB assay; details: SK-OV-3, 48 h
# MDA-MB-468 = test: Cytotoxicity against human MDA-MB-468 cells after 48 hrs by SRB assay; details: MDA-MB-468, 48 h
# CCRF-CEM = test: Growth inhibition of human CCRF-CEM cells assessed as cell growth at 10^-8 M incubated for 48 hrs by sulforhodamine B assay relative to control; details: read-out: Activity
# SR = test: Growth inhibition of human SR cells assessed as cell growth at 10^-8 M incubated for 48 hrs by sulforhodamine B assay relative to control; details: read-out: Activity
# Malme-3M = test: Growth inhibition of human MALME-3M cells assessed as cell growth at 10^-8 M incubated for 48 hrs by sulforhodamine B assay relative to control; details: read-out: Activity
# OVCAR-4 [3] = test: Growth inhibition of human OVCAR4 cells assessed as cell growth at 10^-8 M incubated for 48 hrs by sulforhodamine B assay relative to control; details: OVCAR-4, 48 h, read-out: Activity
# PC-3 = test: Growth inhibition of human PC3 cells assessed as cell growth at 10^-8 M incubated for 48 hrs by sulforhodamine B assay relative to control; details: PC-3, 48 h, read-out: Activity
# K562 [4] = test: Growth inhibition of human K562 cells assessed as cell growth at 10^-7 M incubated for 48 hrs by sulforhodamine B assay relative to control; details: K562, 48 h, read-out: Activity
# NCI-H226 = test: Growth inhibition of human NCI-H226 cells assessed as cell growth at 10^-7 M incubated for 48 hrs by sulforhodamine B assay relative to control; details: NCI-H226, 48 h, read-out: Activity
# NCI-H322M = test: Growth inhibition of human NCI-H322M cells assessed as cell growth at 10^-7 M incubated for 48 hrs by sulforhodamine B assay relative to control; details: read-out: Activity
# SNB-75 = test: Growth inhibition of human SNB75 cells assessed as cell growth at 10^-7 M incubated for 48 hrs by sulforhodamine B assay relative to control; details: SNB-75, 48 h, read-out: Activity
# A498 = test: Growth inhibition of human A498 cells assessed as cell growth at 10^-7 M incubated for 48 hrs by sulforhodamine B assay relative to control; details: A498, 48 h, read-out: Activity
# BT-549 = test: Growth inhibition of human BT549 cells assessed as cell growth at 10^-7 M incubated for 48 hrs by sulforhodamine B assay relative to control; details: BT-549, 48 h, read-out: Activity
# DU-145 = test: Growth inhibition of human DU145 cells assessed as cell growth at 10^-6 M incubated for 48 hrs by sulforhodamine B assay relative to control; details: DU-145, 48 h, read-out: Activity
# MCF7 = test: Growth inhibition of human MCF7 cells assessed as cell growth at 10^-6 M incubated for 48 hrs by sulforhodamine B assay relative to control; details: MCF7, 48 h, read-out: Activity
# K562 [5] = test: Growth inhibition of human K562 cells assessed as cell growth at 10^-5 M incubated for 48 hrs by sulforhodamine B assay relative to control; details: K562, 48 h, read-out: Activity
# SK-MEL-28 = test: Growth inhibition of human SK-MEL-28 cells assessed as cell growth at 10^-5 M incubated for 48 hrs by sulforhodamine B assay relative to control; details: SK-MEL-28, 48 h, read-out: Activity
# U-251 [6] = test: Growth inhibition of human U251 cells assessed as cell growth at 10^-4 M incubated for 48 hrs by sulforhodamine B assay relative to control; details: U-251, 48 h, read-out: Activity
# [7] = read-out: pLC50 (the source's name) (converted)
# [8] = read-out: LC50 (the source's name)
structure (smiles),measurement,setting,value
C#C[C@@]1(O)[C@@H](CO)O[C@@H](n2cc(Cl)c3c(N)ncnc32)[C@@H]1O,GI50,HL-60(TB); read-out: GI50,34.1 to 84 nM
same,TGI,HL-60(TB); read-out: TGI,197 to 317 nM
same,CC50,HL-60(TB); [7],> 100 µM
same,TGI,NCI-H460; read-out: TGI,226 to 753 nM
same,CC50,NCI-H460; [7],> 100 µM
same,GI50,SNB-19; read-out: GI50,21 to 204 nM
same,TGI,SNB-19; read-out: TGI,294 nM
same,CC50,SNB-19; [7],> 100 µM
same,TGI,SNB-19; read-out: pTGI (converted),295 nM
same,CC50,U-251 [1],> 100 µM
same,GI50,MDA-MB-435; read-out: GI50,132 to 208 nM
same,CC50,MDA-MB-435; [8],4.67 to 100 µM
same,TGI,MDA-MB-435; read-out: TGI,0.52 to 10.2 µM
same,GI50,SK-MEL-5; read-out: GI50,109 to 140 nM
same,TGI,SK-MEL-5; read-out: TGI,268 to 343 nM
same,GI50,IGROV-1; read-out: GI50,123 to 145 nM
same,CC50,IGROV-1; [8],> 100 µM
same,TGI,IGROV-1; read-out: TGI,475 nM
same,TGI,IGROV-1; read-out: pTGI (converted),479 nM
same,GI50,OVCAR-4 [2]; read-out: GI50,292 to 358 nM
same,CC50,OVCAR-4 [2]; [8],> 100 µM
same,TGI,OVCAR-4 [2]; read-out: TGI,1.98 to 5.62 µM
same,GI50,SK-OV-3; read-out: GI50,119 to 171 nM
same,CC50,SK-OV-3; [8],> 100 µM
same,TGI,SK-OV-3; read-out: TGI,467 to 573 nM
same,GI50,MDA-MB-468; read-out: GI50,180 to 243 nM
same,TGI,MDA-MB-468; read-out: TGI,451 to 751 nM
same,CC50,MDA-MB-468; [7],2090 nM
same,growth at 0.01 µM,CCRF-CEM,96 to 97%
same,growth at 0.01 µM,SR,107 to 108%
same,growth at 0.01 µM,Malme-3M,93 to 100%
same,growth at 0.01 µM,OVCAR-4 [3],89 to 90%
same,growth at 0.01 µM,PC-3,91 to 94%
same,growth at 0.1 µM,K562 [4],45 to 55%
same,growth at 0.1 µM,NCI-H226,102 to 108%
same,growth at 0.1 µM,NCI-H322M,67 to 80%
same,growth at 0.1 µM,SNB-75,104 to 110%
same,growth at 0.1 µM,A498,105 to 111%
same,growth at 0.1 µM,BT-549,86 to 90%
same,growth at 1 µM,DU-145,7 to 12%
same,growth at 1 µM,MCF7,1 to 4%
same,growth at 10 µM,K562 [5],5 to 7%
same,growth at 10 µM,SK-MEL-28,44 to 45%
same,growth at 100 µM,U-251 [6],1%
